Test results reported in ChEMBL document CHEMBL5380834, “Design, Synthesis, and Biological Evaluation of Androgen Receptor (AR) Antagonist-Heat Shock Protein 90 (Hsp90) Inhibitor Conjugates for Targeted Therapy of Castration-Resistant Prostate Cancer” (J Med Chem, 2023).
Values belong to the compound of their own block, whether it stands above or below them. Activity calls are given as the source filed them. No cut-off for these calls is given here.

Assays:
LNCaP [1] = test: Induction of apoptosis in human LNCaP cells assessed as increase in PARP level at 1 uM measured after 48 hrs by Western blot analysis; format: functional, cell-based
LNCaP [2] = test: Downregulation of AR-regulated TMPRSS2 protein level in human LNCaP cells measured for 48 hrs in presence of AR agonist, R1881 in charcoal stripped serum by Western blot analysis; format: functional, cell-based; conditions: dose 300-1000 nM
LNCaP [3] = test: Induction of apoptosis in human LNCaP cells assessed as late apoptotic cells at 100 nM measured for 48 hrs by flow cytometry assay (reference value: 1.29%); format: functional
LNCaP [4] = test: Downregulation of AR-regulated FKBP5 protein level in human LNCaP cells measured for 48 hrs in presence of AR agonist, R1881 in charcoal stripped serum by Western blot analysis; format: functional, cell-based; conditions: dose 300-1000 nM
LNCaP [5] = test: Cytotoxicity against AR-positive human LNCaP cells assessed as inhibition of cell growth incubated for 5 days in presence of AR agonist, R1881 in charcoal stripped serum by WST-1 assay; format: functional, cell-based; conditions: 120 h
[6] = biological target: T1, Androgen receptor (Homo sapiens) (UniProt P10275); test: Induction of full length AR degradation in human LNCaP cells assessed as maximum degradation at 100 nM measured after 12 hrs relative to control; format: cell-based
T1 sequence (whole entry): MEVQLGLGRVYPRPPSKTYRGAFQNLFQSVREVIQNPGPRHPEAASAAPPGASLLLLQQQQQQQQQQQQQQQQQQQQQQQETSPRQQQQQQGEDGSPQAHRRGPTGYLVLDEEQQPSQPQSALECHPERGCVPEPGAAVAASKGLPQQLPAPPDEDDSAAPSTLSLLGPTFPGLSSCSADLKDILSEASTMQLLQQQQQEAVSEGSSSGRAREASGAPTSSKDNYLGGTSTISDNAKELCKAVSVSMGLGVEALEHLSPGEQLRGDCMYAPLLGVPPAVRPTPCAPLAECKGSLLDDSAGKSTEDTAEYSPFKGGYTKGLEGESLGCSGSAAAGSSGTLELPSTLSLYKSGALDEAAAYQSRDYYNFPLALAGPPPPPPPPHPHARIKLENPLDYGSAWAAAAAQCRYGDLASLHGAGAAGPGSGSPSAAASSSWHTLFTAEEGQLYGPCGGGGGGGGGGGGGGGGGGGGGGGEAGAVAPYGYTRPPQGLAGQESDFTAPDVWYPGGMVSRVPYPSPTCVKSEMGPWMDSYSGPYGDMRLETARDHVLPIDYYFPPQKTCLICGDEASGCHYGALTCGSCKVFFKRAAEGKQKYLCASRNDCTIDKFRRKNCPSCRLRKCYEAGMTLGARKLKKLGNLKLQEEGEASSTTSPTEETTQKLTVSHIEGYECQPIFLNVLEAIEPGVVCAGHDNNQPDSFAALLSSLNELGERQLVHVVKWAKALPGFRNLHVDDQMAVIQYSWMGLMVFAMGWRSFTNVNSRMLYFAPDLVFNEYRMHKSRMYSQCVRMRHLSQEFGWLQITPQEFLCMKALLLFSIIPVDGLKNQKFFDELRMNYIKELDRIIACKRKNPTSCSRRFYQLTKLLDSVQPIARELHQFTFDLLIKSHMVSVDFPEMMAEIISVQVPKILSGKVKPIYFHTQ

CWR22R [7] = test: Induction of apoptosis in human 22Rv1 cells assessed as late apoptotic cells at 100 nM measured for 48 hrs by flow cytometry assay (reference value: 3.96%); format: functional
LNCaP [8] = test: Induction of apoptosis in human LNCaP cells assessed as viable cells at 1000 nM measured for 48 hrs by flow cytometry assay (reference value: 96.9%); format: functional; conditions: read-out: Activity
LNCaP [9] = test: Induction of apoptosis in human LNCaP cells assessed as necrotic cells at 1000 nM measured for 48 hrs by flow cytometry assay (reference value: 0.35%); format: functional
CWR22R [10] = test: Induction of cell cycle arrest in human 22Rv1 cells assessed as accumulation of cells at G2/M phase at 100 to 1000 nM measured for 24 hrs by flow cytometry analysis; format: functional, cell-based; conditions: dose 100-1000 nM
CWR22R [11] = test: Induction of apoptosis in human 22Rv1 cells assessed as necrotic cells at 1000 nM measured for 48 hrs by flow cytometry assay (reference value: 0.19%); format: functional
CWR22R [12] = test: Induction of apoptosis in human 22Rv1 cells assessed as late apoptotic cells at 1000 nM measured for 48 hrs by flow cytometry assay (reference value: 3.96%); format: functional
CWR22R [13] = test: Cytotoxicity against human 22Rv1 cells assessed as inhibition of cell growth incubated for 5 days in presence of AR agonist, R1881 by WST-1 assay; format: functional, cell-based; conditions: 22Rv1, 120 h
CWR22R [14] = test: Induction of apoptosis in human 22Rv1 cells assessed as increase in PARP level at 1 uM measured after 48 hrs by Western blot analysis; format: functional, cell-based
CWR22R [15] = test: Induction of apoptosis in human 22Rv1 cells assessed as early apoptotic cells at 100 nM measured for 48 hrs by flow cytometry assay (reference value: 4.59%); format: functional
LNCaP [16] = test: Induction of apoptosis in human LNCaP cells assessed as increase in caspase-3 level at 1 uM measured after 48 hrs by Western blot analysis; format: functional, cell-based
CWR22R [17] = test: Induction of apoptosis in human 22Rv1 cells assessed as viable cells at 100 nM measured for 48 hrs by flow cytometry assay (reference value: 91.3%); format: functional; conditions: read-out: Activity
[18] = Drug uptake in human 22Rv1 cells at 1 uM measured at 1 to 24 hrs by LC-MS/MS analysis; format: ADME, cell-based; conditions: cwr22r, time 1-24 hrs
LNCaP [19] = test: Induction of apoptosis in human LNCaP cells assessed as late apoptotic cells at 1000 nM measured for 48 hrs by flow cytometry assay (reference value: 1.29%); format: functional
CWR22R [20] = test: Induction of apoptosis in human 22Rv1 cells assessed as viable cells at 1000 nM measured for 48 hrs by flow cytometry assay (reference value: 91.3%); format: functional; conditions: read-out: Activity
CWR22R [21] = test: Induction of apoptosis in human 22Rv1 cells assessed as necrotic cells at 100 nM measured for 48 hrs by flow cytometry assay (reference value: 0.19%); format: functional
CWR22R [22] = test: Induction of apoptosis in human 22Rv1 cells assessed as increase in caspase-3 level at 1 uM measured after 48 hrs by Western blot analysis; format: functional, cell-based
[23] = tested on: Androgen receptor (Homo sapiens), P10275 [UNDEFINED MUTATION]; test: Induction of AR-V7 degradation in human 22Rv1 cells measured upto 24 hrs by Western blot analysis; format: cell-based; conditions: dose 1000.0 nM
LNCaP [24] = test: Induction of apoptosis in human LNCaP cells assessed as necrotic cells at 100 nM measured for 48 hrs by flow cytometry assay (reference value: 0.35%); format: functional
LNCaP [25] = test: Induction of apoptosis in human LNCaP cells assessed as early apoptotic cells at 1000 nM measured for 48 hrs by flow cytometry assay (reference value: 1.48%); format: functional
[26] = biological target: T1, Androgen receptor (Homo sapiens); test: Induction of full length AR degradation in human RWPE-1 cells at 10 uM measured for 24 hrs by Western blot analysis; format: cell-based
LNCaP [27] = test: Induction of apoptosis in human LNCaP cells assessed as viable cells at 100 nM measured for 48 hrs by flow cytometry assay (reference value: 96.9%); format: functional; conditions: read-out: Activity
[28] = Cytotoxicity against human RWPE-1 cells assessed as inhibition of cell growth incubated for 5 days by CCK-8 assay; format: toxicity, cell-based
[29] = Toxicity in BALB/c nude mouse xenografted with human LNCaP cells assessed as animal weight loss at 5 mg/kg, ip administered once every 4th day for 3 weeks; format: organism-based; conditions: in vivo, 504 h
[30] = Drug uptake in human 22Rv1 cells measured after 12 hrs by LC-MS/MS analysis; format: ADME, cell-based; conditions: cwr22r, 1 µM
[31] = Toxicity in BALB/c nude mouse xenografted with human 22Rv1 cells assessed as animal weight loss at 5 mg/kg, ip administered once every 4th day for 3 weeks; format: organism-based, CWR22R; conditions: in vivo, 504 h
CWR22R [32] = test: Induction of apoptosis in human 22Rv1 cells assessed as early apoptotic cells at 1000 nM measured for 48 hrs by flow cytometry assay (reference value: 4.59%); format: functional
LNCaP [33] = test: Induction of cell cycle arrest in human LNCaP cells assessed as accumulation of cells at G2/M phase at 100 to 1000 nM measured for 24 hrs by flow cytometry analysis; format: functional, cell-based; conditions: dose 100-1000 nM
LNCaP [34] = test: Induction of apoptosis in human LNCaP cells assessed as early apoptotic cells at 100 nM measured for 48 hrs by flow cytometry assay (reference value: 1.48%); format: functional
LNCaP [35] = test: Downregulation of AR-regulated PSA protein level in human LNCaP cells measured for 48 hrs in presence of AR agonist, R1881 in charcoal stripped serum by Western blot analysis; format: functional, cell-based; conditions: dose 300-1000 nM
CWR22R [36] = test: Antitumor activity against human 22Rv1 cells xenografted in BALB/c nude mouse assessed as downregulation of AR-V7 level at 2.5 mg/kg, ip administered once every 4th day for 3 weeks; format: functional, organism-based
CWR22R [37] = test: Antitumor activity against human 22Rv1 cells xenografted in BALB/c nude mouse assessed as downregulation of AR-FL level at 2.5 mg/kg, ip administered once every 4th day for 3 weeks; format: functional, organism-based
LNCaP [38] = test: animal or person; conditions: Mus musculus, po, 504 h, read-out: TGI
Description: Antitumor activity against human LNCaP cells xenografted in BALB/c nude mouse assessed as inhibition of tumor growth at 5 mg/kg, po administered once every 4th day for 3 weeks

Activity [6]: > 90% | Drug uptake [18]: Active | Activity [23]: Dose-Dependent Effect | Activity [26]: inactive | Drug uptake [30]: Dose-Dependent Effect
SMILES: CC(C)c1cc(-c2n[nH]c(=O)n2-c2ccc(CN3CCN(CC4CCN(CC5CCN(c6ncc(C(=O)N[C@H]7CC[C@H](Oc8ccc(C#N)c(Cl)c8)CC7)cn6)CC5)CC4)CC3)cc2)c(O)cc1O
Activity (LNCaP [1]): Active | Activity (LNCaP [2]): Dose-Dependent Effect | Activity (LNCaP [3]): 3.71% | Activity (LNCaP [4]): Dose-Dependent Effect | IC50 (LNCaP [5]): 33.4 nM | Activity (CWR22R [7]): 12.8% | viability at 1 µM (LNCaP [8]): 87.1% | Activity (LNCaP [9]): 1.13% | Activity (CWR22R [10]): Active | Activity (CWR22R [11]): 0.085% | Activity (CWR22R [12]): 16.1% | IC50 (CWR22R [13]): 27 nM | Activity (CWR22R [14]): Active | Activity (CWR22R [15]): 6.96% | Activity (LNCaP [16]): Active | viability at 0.1 µM (CWR22R [17]): 80.1% | Activity (LNCaP [19]): 6.91% | viability at 1 µM (CWR22R [20]): 70.3% | Activity (CWR22R [21]): 0.066% | Activity (CWR22R [22]): Active | Activity (LNCaP [24]): 0.32% | Activity (LNCaP [25]): 4.87% | viability at 0.1 µM (LNCaP [27]): 91.9% | IC50 at 5 days [28]: 241 nM | Activity [29]: 10% | Activity [31]: ~ 10% | Activity (CWR22R [32]): 13.5% | Activity (LNCaP [33]): Active | Activity (LNCaP [34]): 4.05% | Activity (LNCaP [35]): Dose-Dependent Effect

SMILES: CNC(=O)c1ccc(N2C(=S)N(c3ccc(C#N)c(C(F)(F)F)c3)C(=O)C2(C)C)cc1F [ENZALUTAMIDE]
IC50 (LNCaP [5]): 52 nM | IC50 (CWR22R [13]): > 1000 nM | Activity (CWR22R [36]): inactive | Activity (CWR22R [37]): inactive | inhibition in vivo at 5 mg/kg (LNCaP [38]): 50% | Activity [29]: 10%
